pIC50: −log10 of the molar value. Like-named read-outs stand apart in the source and are kept apart here.
Tests used:
c-Src = biological target: T1, c-Src (Homo sapiens, UniProt P12931); experiment: Kinase inhibition assay (Reaction Biology); type: biochemical
T1 construct: purchased Reaction Biology Corporation (PA, USA)

FGFR1 = biological target: T2, FGFR1 (Homo sapiens, UniProt P11362); experiment: Kinase inhibition assay (Reaction Biology); type: biochemical
T2 construct: purchased Reaction Biology Corporation (PA, USA)
T2 sequence (P11362 22-822): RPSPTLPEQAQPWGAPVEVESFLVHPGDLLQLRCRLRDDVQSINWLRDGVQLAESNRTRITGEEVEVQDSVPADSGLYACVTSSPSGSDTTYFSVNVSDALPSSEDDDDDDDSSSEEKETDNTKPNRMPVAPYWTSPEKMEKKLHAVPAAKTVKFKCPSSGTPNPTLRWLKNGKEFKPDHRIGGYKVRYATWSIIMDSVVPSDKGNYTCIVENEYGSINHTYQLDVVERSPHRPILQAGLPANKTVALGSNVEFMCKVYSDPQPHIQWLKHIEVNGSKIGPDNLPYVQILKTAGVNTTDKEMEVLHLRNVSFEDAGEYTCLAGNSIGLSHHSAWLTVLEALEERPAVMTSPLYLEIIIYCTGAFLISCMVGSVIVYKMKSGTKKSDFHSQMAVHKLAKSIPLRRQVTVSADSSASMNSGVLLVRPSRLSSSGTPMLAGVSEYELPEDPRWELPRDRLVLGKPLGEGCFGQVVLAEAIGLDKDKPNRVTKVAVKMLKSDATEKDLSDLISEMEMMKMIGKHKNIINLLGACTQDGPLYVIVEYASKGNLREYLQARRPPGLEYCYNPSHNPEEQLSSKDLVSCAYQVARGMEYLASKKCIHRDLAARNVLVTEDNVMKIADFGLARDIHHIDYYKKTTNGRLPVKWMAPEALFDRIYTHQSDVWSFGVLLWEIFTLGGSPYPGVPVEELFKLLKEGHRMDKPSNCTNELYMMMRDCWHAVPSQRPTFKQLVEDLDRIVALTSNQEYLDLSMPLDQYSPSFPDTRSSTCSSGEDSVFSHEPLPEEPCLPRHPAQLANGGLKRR

FLT3 (ITD) = FLT3 (ITD) (Homo sapiens, UniProt P36888, ITD); experiment: biochemical
Chain of FLT3 (ITD) (P36888 564-993, change not shown): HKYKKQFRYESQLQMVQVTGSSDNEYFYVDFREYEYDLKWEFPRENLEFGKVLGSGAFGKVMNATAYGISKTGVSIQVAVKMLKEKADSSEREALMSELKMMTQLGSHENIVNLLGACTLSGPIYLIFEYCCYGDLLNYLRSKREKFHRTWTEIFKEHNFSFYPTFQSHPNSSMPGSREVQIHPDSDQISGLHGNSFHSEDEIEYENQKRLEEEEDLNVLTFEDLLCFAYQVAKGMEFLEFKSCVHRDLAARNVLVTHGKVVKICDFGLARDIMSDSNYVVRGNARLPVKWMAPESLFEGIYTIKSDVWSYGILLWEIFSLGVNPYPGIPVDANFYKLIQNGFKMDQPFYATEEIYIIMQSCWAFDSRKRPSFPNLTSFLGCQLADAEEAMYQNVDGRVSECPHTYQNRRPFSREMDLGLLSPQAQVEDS

MOLM13 = experiment: Cell proliferation MTT assay; type: cell-based; settings: Homo sapiens, MOLM-13, 72 h, read-out: Human leukemia cell line IC50 MOLM13
Protocol: (§1) The conditional medium (CM) was prepared from the supernatant of HS-5 cell culture for 5 days under normal culture conditions. At the indicated time point, cell viability was evaluated by MTT assay.

MV4-11 = experiment: Cell proliferation MTT assay; type: cell-based; settings: Homo sapiens, 72 h, read-out: Human leukemia cell line IC50 MV4-11
Protocol: as §1

THP-1 = experiment: Cell proliferation MTT assay; type: cell-based; settings: Homo sapiens, 72 h, wild-type FLT3, read-out: Human leukemia cell line IC50 THP-1
Protocol: as §1

U937 = experiment: Cell proliferation MTT assay; type: cell-based; settings: Homo sapiens, U-937, 72 h, wild-type FLT3, read-out: Human leukemia cell line IC50 U937
Protocol: as §1

MOLM13 cells = experiment: Stroma-protecting model: proliferation in HS-5 conditional medium or normal medium; type: cell-based; settings: Homo sapiens, MOLM-13, 72 h, MTT
Protocol: At the indicated time point, cell viability was evaluated by MTT assay.
(A) Indicated FLT3 mutations were expressed in BaF3 cells respectively. […] The autophosphorylation level of FLT3 was visualized and compared by western blot analysis. […] The CM was prepared from HS-5 cell culture for 4 days under routine culture conditions, clarified by centrifugation, and used immediately. The CM was added to complete medium at a final concentration of 40%. Cell viabilities were measured by MTT assay. Data were shown as mean±SD. […] The FLT3 phosphorylation levels of FLT3, STAT5 and ERK 1/2 were determined by Western blot.
On the other hand, the bone marrow stroma-protecting environment containing a number of cytokines (e.g. FLT3 ligand, stromal derived factor-1, etc) could also decrease the drug efficacy of FLT3 inhibitors by activating FLT3 or its downstream effectors and building cross-talk between leukemic blasts and bone marrow microenvironment, [35].

FLT3 = experiment: PD study in subcutaneous MV4-11 xenograft mice; type: in vivo, BALB/c nude mice; settings: single dose 10 mg/kg intravenous
Protocol: An MV4-11 cell tumor model was established by subcutaneous injection. Six-week-old female BALB/c nude mice were used for the subcutaneous model. […] Mice were sacrificed and tumor tissues were freshly dissected, homogenized, and centrifuged at 16000 g for 20 min. The phosphorylation levels of FLT3 were measured by Western blot.
Blue square and solid line represent intravenous injection administration. […] Mice were sacrificed at indicated time points and then tumor tissues were dissected and lysed. Phosphorylation levels of FLT3, STAT5 and ERK1/2 were measured by western blotting. (C) Bone marrow mononuclear cells (BMMCs) were isolated from healthy C57BL/6 mice. […] Apoptosis assays were conducted after 36-hour incubation. […] 24 h after the last administration, c-Kit^+ cells were evaluated by flow cytometry. […] Data were shown with mean±SD.

T1 sequence (P12931 whole entry): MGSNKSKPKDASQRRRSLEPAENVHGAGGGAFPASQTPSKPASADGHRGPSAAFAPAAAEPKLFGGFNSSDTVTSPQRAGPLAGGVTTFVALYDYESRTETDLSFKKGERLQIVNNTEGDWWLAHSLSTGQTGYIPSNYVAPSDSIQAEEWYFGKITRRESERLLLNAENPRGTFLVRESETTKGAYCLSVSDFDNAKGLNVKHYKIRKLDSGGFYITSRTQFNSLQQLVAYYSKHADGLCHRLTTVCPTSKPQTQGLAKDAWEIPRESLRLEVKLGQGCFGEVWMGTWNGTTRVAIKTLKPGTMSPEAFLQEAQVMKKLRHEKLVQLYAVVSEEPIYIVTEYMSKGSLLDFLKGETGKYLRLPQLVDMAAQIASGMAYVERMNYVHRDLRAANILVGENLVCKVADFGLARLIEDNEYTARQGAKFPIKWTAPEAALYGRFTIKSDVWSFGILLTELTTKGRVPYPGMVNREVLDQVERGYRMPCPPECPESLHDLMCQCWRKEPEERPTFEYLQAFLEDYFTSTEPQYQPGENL

CN1CCN(Cc2ccc(NC(=O)c3n[nH]cc3Nc3ncnc4[nH]ccc34)cc2)CC1 [LT-171-861]
pIC50 (c-Src): 7.14
pIC50 (FGFR1): 7.70
pIC50 (FLT3 (ITD)): > 9.00
pIC50 (FLT3 (ITD); 10 μM ATP, 10-dose IC50 mode): 9.14
pIC50 (MOLM13): 8.89
pIC50 (MV4-11): 8.74
pIC50 (THP-1): 6.30
pIC50 (U937): 6.31
pIC50 (MOLM13 cells; HS-5 conditional medium (CM) 40%, read-out: IC50 proliferation of MOLM13 cells in CM): 7.61
pIC50 (MOLM13 cells; normal medium (NM), read-out: IC50 proliferation of MOLM13 cells in NM): 7.70
duration of inhibition of FLT3 autophosphorylation and downstream effectors (FLT3): 24 h
inhibition of p-FLT3, p-STAT5 and p-ERK1/2 in tumor (FLT3; western blot): sustained inhibition

— paper PMC7681098 (Theranostics, 2021)
